Patent publication US10172927B2, “Detection/measurement of malaria infection disease utilizing natural immunity by hemozoin induction, screening of preventative or therapeutic medicine for malaria infection disease, and regulation of natural immunity induction” (Osaka University, priority 2004, dated 2019)

System: FL-DCs stimulated with HZ
Experiment: Chloroquine effect on HZ-induced cytokine production by FL-DCs
Type: cell-based, mouse
Conditions: 30 μM HZ, CQ 10 μM, 24 hours; P<0.05 HZ vs. HZ+CQ
Description: Single cell suspensions of spleen cells (5×10^5 cells/well) were cultured in complete RPMI 1640 medium supplemented with 10% FCS for 48 hours. F1t3 ligand-induced bone marrow-derived DCs (FL-DCs) (1×10^5 cells/well) were generated by culturing bone marrow cells with F1t3 ligand (100 ng/ml; Pepro Tech) for eight to nine days in DMEM medium containing 10% FCS. The cells were stimulated in the presence of the indicated stimuli and supernatants were collected for cytokine ELISA.
Murine TNF-α, IL-12p40, MCP-1, IL-6 (R & D Systems), and IFNα (PBL Bio. Lab) were measured either from the supernatants or the sera by ELISA according to the manufacturer's instructions.
The anti-malarial formulation, chloroquine (CQ), has been reported to inhibit proinflammatory responses during malaria infection in addition to endosome/lysosome maturations and malarial hemozoin crystal formations, whereas the exact mechanism of anti-malarial effects of CQ is still under debate (Int. J. Parasitol. 32: 1645-1653, 2002; Life Sci. 74: 1957-1972, 2004). […] To examine the effect of CQ to HZ-induced proinflammatory responses, FL-DCs were stimulated with HZ in the presence of CQ. […]
(a) To detect DNA contamination, HZ was run on an agarose gel and stained with ethidium bromide. […] Then the supernatants were collected and measured for TNFα or IL-12p40 by ELISA. […] “n.d.” means “not detected”.

CCN(CC)CCCC(C)Nc1ccnc2cc(Cl)ccc12 (stereo not shown) [CQ, chloroquine]
HZ-induced TNFα and IL-12p40 productions by FL-DCs in the presence of CQ: diminished
